# Data published in patent US20230093147A1, “METHODS AND COMPOSITIONS RELATING TO IMPROVED COMBINATION THERAPIES” (PRESIDENT AND FELLOWS OF HARVARD COLLEGE, priority 2020, published 2023).
# Where “and” joins values, the source holds several entries; their conditions need not be identical. Identical values can stand only once.
# How the values were obtained:
# [1] = tested on: 4T1 murine breast cancer cells; experiment: In vitro cellular inhibition (MTT) and synergy quantification; format: cell-based
# Experimental: 4T1 cells were seeded in 96 well plates at a density of 500 cells/well. Cells were given 24 hours to adhere to the well plate. Afterwards, a series of ten drug or drug combination dilutions prepared in fresh media were administered to the cells, with a starting concentration of 100 μM. The drugs were incubated with the cells for 72 hours before the media was removed and replaced with 0.5 mg/ml of MTT reagent in media fresh media. The MTT reagent was left incubating with the cells for 4 hours, during which living cells metabolized the reagent to form solid formazan crystals. Afterwards, the MTT reagent in media was removed, and the crystallized formazan was dissolved in DMSO. The plate is shaken at 300 rpm for 15 minutes to fully dissolve the formazan crystals, and absorbance was measured at 590 nm via Spectramax i3 plate reader. The fraction of cells inhibited at a certain drug concentration was calculated by: […]
# where A is the average absorbance of the treated wells, A0 is the average absorbance of the blank wells with DMSO, and AC is the average absorbance of the control untreated wells. The IC50 values for each treatment was then determined through fitting of the Hill equation for dose-response in GraphPad™. The Hill equation is given as follows: […]
# with X as the drug concentration and Y as the fractional inhibition, and m is known as the Hill coefficient and is determined according to the fit.
# To evaluate drug efficacy against 4T1, drugs were evaluated as single drugs and as combination treatments with DOX. Synergy was quantified using the combination index (CI)^10. The formula for CI is as follows:
# Where [AC]50 and [BC]50 represent the IC50 of drugs A and B when given in combination, and the denominator represents the IC50 of single drugs A and B. CI<1 indicates synergy, while a CI=1 indicates additive effects, and a CI>1 indicates antagonism.
# 4T1 cells = experiment: Calreticulin exposure on 4T1 cells; format: cell-based, murine; conditions: 10 μM DOX, compared to untreated controls
# Experimental: Cells for antibody staining and flow cytometry studies were plated in 6-well plates in 3 ml of media and allowed to adhere overnight. […] Treatment was administered approximately 24 h after plating. Cells were harvested using 0.5 ml of trypsin and resuspended to establish 10^6 cells in 100 μl of cell staining buffer. Cells were washed once and incubated at room temperature with 1% CD16/32 in 100 μl of cell staining buffer. After another wash, cells were incubated for 30 min on ice with fluorescently labeled antibodies (Table 12) to distinguish tumor antigens or characteristic markers of immune cell subtypes. Antibody-stained cells were then washed twice before analysis with a BD LSRII flow cytometer.
# [2] = Drug release from liposomes into PBS at 37° C. over 24 hours, Example 1; format: physicochemical; conditions: release from liposomal formulation
# Experimental: The release profile of drug from liposomes was studied using Amicon Ultra mini dialysis filters supplied by Millipore Sigma (Burlington, Mass.) at sink conditions^59. A tenfold dilution of each liposomal formulation in PBS was kept in the mini dialysis filter at 37° C. above a 1.1 ml PBS reservoir. Samples were placed on a plate shaker for constant agitation. […] All PBS reservoirs were analyzed for released drug content using HPLC.
# [3] = free drugs and free drug combinations
# [4] = free drugs and free drug combinations, 72 hours, 500 cells/well
# [5] = Mus musculus, 72 h, free drugs and free drug combinations, 500 cells/well
"IC50 [1, 4] [nM]","IC50 [1, 5] [nM]","IC50 ([1]; Mus musculus, free drug) [nM]",IRIN released within 24 hours [2],Compound,"Hill coefficient, HC [1, 3]",fold increase in calreticulin exposure on 4T1 cells (4T1 cells) [fold]
36,,,,"COc1cccc2c1C(=O)c1c(O)c3c(c(O)c1C2=O)C[C@@](O)(C(=O)CO)C[C@@H]3O[C@H]1C[C@H](N)[C@H](O)[C@H](C)O1 [DOX, Doxorubicin]",0.75 ± 0.04,1.8
,12 ± 0.3,12 ± 0.3,,"Nc1ccn([C@@H]2O[C@H](CO)[C@@H](O)C2(F)F)c(=O)n1 [GEM, gemcitabine]",1.8±0.09 and 1.83 ± 0.09,
14000 ± 700,14000,,less than 40%,"CCc1c2c(nc3ccc(OC(=O)N4CCC(N5CCCCC5)CC4)cc13)-c1cc3c(c(=O)n1C2)COC(=O)[C@]3(O)CC [IRIN, irinotecan]",,
